Measurements: US12133855B2, “Lipid-like nanocomplexes and uses thereof” (Trustees of Tufts College, priority 2018, dated 2024)

Legend:
[1] = TEM size of lipidoid nanoparticles; format: physicochemical; settings: TEM images of LNPs
Experimental: (§1) All chemicals used for lipidoids synthesis were purchased from Sigma-Aldrich without further purification unless otherwise noted. (−30)GFP-Cre recombinase, S. pyogenes Cas9 (spCas9) and sgRNA were generated following the protocols reported in Wang at al., Proc. Natl. Acad. Sci. USA, 2016, 113, 2868-2873 (“Wang”). HeLa-DsRed and GFP-HEK cells were cultured in Dulbecco's modified eagle's medium (DMEM, Sigma-Aldrich) with 10% fetal bovine serum (FBS, Sigma-Aldrich) and 1% penicillin-streptomycin (Gibco). All ^1H NMR spectra were recorded on a Bruker AVIII 500 MHz NMR spectrometer operated in the Fourier transform mode. Hydrodynamic size and polydispersity index of nanoparticles were measured by Zeta-PALS particle size analyzer (Brookhaven Instruments). The apparent pKa values of lipidoids were determined using 2-(p-toluidinynaphthalene-6-sulphonic acid) (TNS, Sigma-Aldrich) as fluorescent probe following the protocols reported in Heyes et al., J. Controlled Release, 2005, 107, 276-287. TEM measurements were performed on a FEI Technai Transmission Electron Microscope. Fluorescence images of tissue slices were obtained using BZ-X Analyzer fluorescence microscope.
(§2) The morphologies of LNPs were further studied by the transmission electron microscopy (TEM). […] Subsequently, the stability of LNPs thus prepared was examined by DLS and fluorescence measurements.
The morphologies of OCholB fully substituted LNPs were then examined by transmission electron microscopy (TEM). […] In contrast, the vesicular structures were not well-formed for 87-OCholB and 90-OCholB compared to their counterparts, and amorphous aggregates were observed instead.

[2] = Hydrodynamic size and polydispersity of lipidoid nanoparticles by DLS; format: physicochemical; settings: blank LNPs
Experimental: as §1
Lipidoids nanoparticles (LNPs) were fabricated in sodium acetate buffer (25 mM, pH 5.2) by following the simple ultrasonication and vortex procedures described above. Hydrodynamic sizes and polydispersity index (PDI) of LNPs were measured by dynamic laser scattering (DLS) analysis.
Lipidoids were fabricated into nanoparticles for all delivery applications.
In this context, two strategies were tested, i.e., synthesizing new OCholB-tailed lipidoids with single tail rather than full substitution, and adding helper lipids (phospholipids) into fully substituted OCholB LNPs. […] The delivery efficacies of the single-tailed LNPs were first tested using GFP mRNA against HeLa cells (lipidoid/mRNA=10/1; [mRNA]=0.86 μg mL^−1; 24 h of exposure). […] We then tried to add helper lipids into the original two-tailed OCholB lipidoid nanoparticles formulations. As a proof-of-concept, DOPE was mixed with OCholB lipidoids (lipidoid/DOPE=1/1, weight ratio) and nanoparticles were fabricated (noted as 75-OCholB-F, 76-OCholB-F, and 77-OCholB-F) and loaded with Cas9 mRNA and sgRNA (mRNA/sgRNA=1/1, weight ratio).

[3] = tested on: HeLa-DsRed cells; assay: Intracellular delivery of (−30)GFP-Cre/LNP (GFP-positive cells); format: cell-based; settings: 25 nM (−30)GFP-Cre, lipidoid 3.3 mg/L; for green fluorescence emission (fluorescence microscopy): 6 h incubation; for GFP-positive cells: flow cytometry, 6 h
Experimental: (§3) The final (−30)GFP-Cre protein concentration is 25 nM, and lipidoid concentration is 3.3 mg/L. For the gene recombination functional study, HeLa-DsRed cells were treated with same conditions and the red fluorescence emission from DsRed was analyzed by flow cytometry 24 h after delivery.
A Cre recombinase protein fused to a negatively supercharged GFP variant ((−30)GFP-Cre) was used as a model cargo protein. The (−30)GFP-Cre protein was able to complex with cationic LNPs through electrostatic attraction and other types supramolecular interactions. The cellular uptake of LNPs could be determined by direct analysis of intracellular GFP fluorescent intensity as reported in Wang. HeLa-DsRed cells were used in this study, which expressed red fluorescent DsRed upon Cre-mediated recombination to facilitate the functional study of delivered proteins in the following study.
The (−30)GFP-Cre protein loaded LNPs (GFP-Cre/LNPs) were prepared at first by simply mixing precalculated amount of aqueous solution of LNPs and protein at ambient conditions. For the intracellular delivery, after incubation with GFP-Cre/LNPs nanoparticles for 6 h, the GFP-positive cells were observed using fluorescence microscopy, harvested and counted by flow cytometry. […] The intracellular (−30)GFP-Cre protein delivery efficiencies were further quantified by flow cytometry.

[4] = tested on: HeLa-DsRed cells; assay: Cre-mediated gene recombination (DsRed expression) after (−30)GFP-Cre/LNP delivery; format: cell-based; settings: 24 h; 25 nM (−30)GFP-Cre; lipidoid 3.3 mg/L
Experimental: as §3
The top 12 of LNPs identified through intracellular delivery screening experiments were further tested for gene recombination using HeLa-DsRed model cells. The expression of DsRed from Cre protein mediated gene recombination was analyzed after 24 h of co-incubation with free (−30)GFP-Cre protein and protein loaded LNPs. […] Most of the test LNPs, on the other hand, efficiently delivered (−30)GFP-Cre protein and induced gene recombination, with 14-46% of the cells positive for DsRed.

[5] = tested on: Ai14 mice; assay: In vivo (−30)GFP-Cre delivery with formulated O17 LNPs, intravenous, tdTomato expression; design: species or system mouse; settings: day 0 and day 5, 100 μg protein each, organs at day 20
Experimental: Formulated LNPs (lipidoid/Cholesterol/DOPE/DSPE-PEG2k=16/4/1/4, weight ratio) were prepared for protein loading and mice injection. Ai14 mice were housed in a temperature and humidity controlled facility with a 12 h light/dark cycle. Two mice in each group were injected with (−30)GFP-Cre/LNPs formulations on day 0 and 5, with 100 μg protein for each injection. Organs including heart, liver, spleen, lung and kidney from all groups were collected 20 days after injections. The tissues were fixed overnight in 4% paraformaldehyde (PFA) before being sectioning into 10 μm slices. The slices were collected and stained with DAPI for fluorescence imaging.
Upon Cre mediated gene recombination, the STOP cassette was removed, resulting in tdTomato expression. Considering the different performances of cargo loaded LNPs in vitro and in vivo, three LNPs with same amine heads and different tails (76-O17O, 76-O17S and 76-O17Se) were tested in this study. Formulated LNPs (lipidoid/cholesterol/DOPE/DSPE-PEG2k=16/4/1/4, weight ratio) were prepared. Mice were injected (intravenous injection) with (−30)GFP-Cre loaded the formulated LNPs (GFP-Cre/76-O17O, GFP-Cre/76-O17S, and GFP-Cre/76-O17Se) at day 0 and day 5 (100 μg of protein for each injection). […] Fluorescence images with lower magnification and larger field of view were obtained. […]

[6] = tested on: GFP-HEK cells
Experimental: Cell viability was measured by the standard MTT assay. HeLa-DsRed or GFP-HEK cells were seeded into 96-well plate with a density of 5×10^3 cell/well. (−30)GFP-Cre/LNP or Cas9:sgRNA/LNP nanoparticles were added after 24 h of incubation. The final concentration of protein is 25 nM and LNP is 3.3 mg/L. After incubating for 24 h or 48 h, the MTT reagent (5 mg/mL, in 30 μL PBS buffer) was added and the cells were incubated for another 4 h at 37° C. The cell culture media were then carefully removed and 200 μL of DMSO were added. The DMSO solution was transferred into another 96-well plate and the absorbance at 570 nm was recorded by microplate reader. All experiments were performed in quadruplicate.
In vitro cytotoxicity of Cas9:sgRNA/LNPs against GFP-HEK cells was also evaluated by the MTT assay.

[7] = Storage stability of LNPs (time-dependent DLS, DiO/DiI FRET); format: physicochemical; settings: DiO and DiI loaded LNPs, five days of storage
Experimental: as §2
The cell (HeLa and HeLa-DsRed cell lines) internalization studies were conducted using small molecular hydrophobic (nile red) and hydrophilic (calcein) fluorescent dyes and macromolecular fluorescent recombinant protein ((−30)GFP-Cre) loaded OCholB LNPs. The stabilities of cargo-loaded LNPs were examined at first using time-dependent DLS and fluorescence measurements.

[8] = tested on: GFP-HEK cells; assay: Cas9:sgRNA RNP delivery, GFP gene knockout; format: cell-based; settings: 48 h; 25 nM Cas9:sgRNA RNP; lipidoid 3.3 mg/L
Experimental: For CRISPR/Cas9 gene knockout study, GFP-HEK cells were seeded in 48-well plate with a density of 2×10^4 cell/well. After 24 h of incubation, Cas9:sgRNA/LNP nanoparticles were added to the cells and incubated for 4 h, followed by media changed. After 48 h of incubation, the green emission from GFP was analyzed by flow cytometry.
For the intracellular delivery, GFP-HEK cells were harvested after treating with Cas9:sgRNA/LNPs nanocomplexes for 48 h. GFP gene knockout efficacy was further evaluated by flow cytometry.

[9] = tested on: HeLa cells; assay: Internalization of Dox loaded nanoparticles (flow cytometry); format: cell-based; settings: 8 h of exposure
Experimental: After 24 h of incubation at 37° C., 5% CO2, Dox, CPT or Oxa loaded nanoparticles were added to the cells and incubated for 8 h followed by media change. The cells were then incubated for another 40 h before cell viability analysis.
Doxorubicin hydrochloride (Dox) (water soluble), and camptothecin (CPT) and oxaliplatin (Oxa) (water insoluble) were encapsulated into LNPs (see experimental section) and tested against HeLa cells. […] Then the internalization of Dox loaded 75-OCholB LNP (Dox/75-OCholB) was studied after 8 h of exposure using flow cytometry.

[10] = tested on: HeLa cells; assay: Internalization of calcein loaded nanoparticles; format: cell-based; settings: 8 h of exposure
Experimental: The internalization kinetics and efficiencies of OCholB LNPs were then studied using NR loaded LNPs and HeLa cells. […] Next, all of the NR delivery efficiencies of eight OCholB LNPs were determined after 8 h of exposure. […] Representative fluorescent images of NR/LNPs (NR/75-OCholB, NR/76-OCholB and NR/77-OCholB) treated HeLa cells are shown in FIG. 12D, from which it is easily observed that NR was delivered into the cells and mainly distributed in cytoplasm, by OCholB LNPs. Next, the internalization of negatively charged hydrophilic fluorescent dye, calcein, was studied. […] Next, the use of OCholB LNPs for the intracellular delivery of macromolecular cargo was explored, using fluorescent recombinant (−30)GFP-Cre protein and HeLa-DsRed cells as the model system. […] Delivery efficiency was tested at a range of (−30)GFP-Cre protein concentrations (25, 50 and 100 nM), with a consistent lipid/protein ratio (i.e., delivery with the final lipid concentration of 1.7, 3.3, and 6.6 μg mL^−1 respectively). 33.2%, 43.8% and 74% of GFP positive (GFP^+) cells were recorded for (−30)GFP-Cre/Lpf2k treated cells with the concentration of (−30)GFP-Cre 25 nM, 50 nM and 100 nM, respectively. […]

Compound | size measured by TEM [1] | averaged hydrodynamic diameter (<Dh>) [2] | polydispersity index (PDI, μ2/I^2) [2] | green fluorescence emission (fluorescence microscopy) [3] | cell viability [6] | GFP knockout (GFP-negative cells) [8] | also measured
CCCCCCCCCCCCCCOCCOC(=O)CCN(CCC(=O)OCCOCCCCCCCCCCCCCC)CCN1CCCC1 [Lipidoid 76-O17O] | 145 nm | 170.1 nm | 0.37 | bright green fluorescence emission |  |  | 
CCCCCCCCCCCCCCSCCOC(=O)CCN(CCC(=O)OCCSCCCCCCCCCCCCCC)CCN1CCCC1 [Lipidoid 76-O17S] | 94 nm | 114.3 nm | 0.24 | bright green fluorescence emission |  |  | cells positive for DsRed (protein transfection efficiency) [4]: 40.8%; tdTomato signal in sections of lung [5]: strong tdTomato signals
CCCCCCCCCCCCCC[Se]CCOC(=O)CCN(CCC(=O)OCC[Se]CCCCCCCCCCCCCC)CCN1CCCC1 [Lipidoid 76-O17Se] | 133 nm | 129.4 nm | 0.18 | bright green fluorescence emission | 76.3% | 50.2% | cells positive for DsRed (protein transfection efficiency) [4]: 36.1%; FRET ratio (I575/I575+I505) variations [7]: negligible; tdTomato signal in sections of lung [5]: strong tdTomato signals
CCCCCCCCCCCCCC[Se]CCOC(=O)CCN(CCCN(C)C)CCC(=O)OCC[Se]CCCCCCCCCCCCCC [Lipidoid 80-O17Se] |  |  |  |  | 68.2% | 57.7% | GFP-positive cells [3]: 39%
CCCCCCCCCCCCCC[Se]CCOC(=O)CCN(CCCN(CC)CC)CCC(=O)OCC[Se]CCCCCCCCCCCCCC [Lipidoid 81-O17Se] |  |  |  |  | 97.7% | 54.7% | 
CCCCCCCCCCCCCC[Se]CCOC(=O)CCN(CCCN(C)C)CCCN(CCC(=O)OCC[Se]CCCCCCCCCCCCCC)CCC(=O)OCC[Se]CCCCCCCCCCCCCC [Lipidoid 400-O17Se] |  |  |  |  | 66.7% | 57.4% | GFP-positive cells [3]: 42%
COc1cccc2c1C(=O)c1c(O)c3c(c(O)c1C2=O)C[C@@](O)(C(=O)CO)C[C@@H]3O[C@H]1C[C@H](N)[C@H](O)[C@H](C)O1.Cl [free Dox, Doxorubicin hydrochloride] |  |  |  |  |  |  | mean fluorescence intensity vs untreated control cells (internalization) [9]: could be readily internalized
O=C(O)CN(CC(=O)O)Cc1cc2c(cc1O)Oc1cc(O)c(CN(CC(=O)O)CC(=O)O)cc1C21OC(=O)c2ccccc21 [free calcein, calcein, reference compound] |  |  |  |  |  |  | mean fluorescent intensity vs free calcein-treated cells [10]: cannot enter into the cells efficiently
